# Data taken from patent publication US20260223852A1, “FUNGICIDAL COMPOSITIONS” (SYNGENTA CROP PROTECTION AG, priority 2023, published 2026).
# Assays:
# [1] = system: Mycosphaerella graminicola (Septoria tritici); test: Example B19: Mycosphaerella graminicola (Septoria tritici) / liquid culture (Septoria blotch); format: cell-based; settings: Zymoseptoria tritici, compared to untreated control
# Experimental: Example B19: Mycosphaerella graminicola (Septoria tritici)/Liquid Culture (Septoria Blotch)
# (§1) Conidia of the fungus from cryogenic storage are directly mixed into nutrient broth (PDB potato dextrose broth). After placing a (DMSO) solution of test compound into a microtiter plate (96-well format), the nutrient broth containing the fungal spores is added. The test plates are incubated at 24° C. and the inhibition of growth is determined photometrically 4-5 days after application.
# [2] = system: Pyrenophora teres; test: Example B17: Pyrenophora teres / barley / leaf disc preventative (net blotch); format: in vivo; settings: foliar, compared to untreated control
# Experimental: Example B17: Pyrenophora teres/Barley/Leaf Disc Preventative (Net Blotch)
# Barley leaf segments cv. Hasso are placed on agar in a multiwell plate (24-well format) and sprayed with the formulated test compound diluted in water. The leaf segments are inoculated with a spore suspension of the fungus 2 days after application. The inoculated leaf segments are incubated at 20° C. and 65% rh under a light regime of 12 h light/12 h darkness in a climate cabinet and the activity of a compound is assessed as disease control compared to untreated when an appropriate level of disease damage appears in untreated check leaf segments (5-7 days after application).
# [3] = system: Blumeria graminis f. sp. tritici (Erysiphe graminis f. sp. tritici); test: Example B7: Blumeria graminis f. sp. tritici / wheat / leaf disc preventative (powdery mildew on wheat); format: in vivo; settings: foliar, compared to untreated control
# Experimental: Example B7: Blumeria Graminis f. Sp. Tritici (Erysiphe graminis f. Sp. Tritici)/Wheat/Leaf Disc Preventative (Powdery Mildew on Wheat)
# Wheat leaf segments cv. Kanzler are placed on agar in a multiwell plate (24-well format) and sprayed with the formulated test compound diluted in water. The leaf disks are inoculated by shaking powdery mildew infected plants above the test plates 1 day after application. The inoculated leaf disks are incubated at 20° C. and 60% rh under a light regime of 24 h darkness followed by 12 h light/12 h darkness in a climate chamber and the activity of a compound is assessed as percent disease control compared to untreated when an appropriate level of disease damage appears on untreated check leaf segments (6-8 days after application).
# [4] = system: Botryotinia fuckeliana (Botrytis cinerea); test: Example B2: Botryotinia fuckeliana (Botrytis cinerea) / liquid culture (gray mould); format: cell-based; settings: compared to untreated control
# Experimental: Example B2: Botryotinia fuckeliana (Botrytis cinerea)/Liquid Culture (Gray Mould)
# as §1, with “(Vogels” for “(PDB potato dextrose”, “3-4” for “4-5”
# [5] = system: Glomerella lagenarium (Colletotrichum lagenarium); test: Example B5: Glomerella lagenarium (Colletotrichum lagenarium) / liquid culture (anthracnose); format: cell-based; settings: Colletotrichum orbiculare, compared to untreated control
# Experimental: Example B5: Glomerella Lagenarium (Colletotrichum Lagenarium)/Liquid Culture (Anthracnose)
# as §1, with “measured” for “determined”, “3-4” for “4-5”
# [6] = system: Mycosphaerella arachidis (Cercospora arachidicola); test: Example B13: Mycosphaerella arachidis (Cercospora arachidicola) / liquid culture (early leaf spot); format: cell-based; settings: compared to untreated control
# Experimental: Example B13: Mycosphaerella arachidis (Cercospora arachidicola)/Liquid Culture (Early Leaf Spot)
# as §1
# [7] = system: Monographella nivalis (Microdochium nivale); test: Example B12: Monographella nivalis (Microdochium nivale) / liquid culture (foot rot cereals); format: cell-based; settings: compared to untreated control
# Experimental: Example B12: Monographella Nivalis (Microdochium Nivale)/Liquid Culture (Foot Rot Cereals)
# as §1
# [8] = system: Fusarium culmorum; test: microbe, parasite or virus in culture; format: cell-based; settings: read-out: control of Fusarium culmorum
# [9] = system: Puccinia recondita f. sp. tritici; test: Example B15: Puccinia recondita f. sp. tritici / wheat / leaf disc preventative (brown rust); format: in vivo; settings: 200 ppm, compared to untreated control
# Experimental: Example B15: Puccinia recondita f. Sp. Tritici/Wheat/Leaf Disc Preventative (Brown Rust)
# Wheat leaf segments cv. Kanzler are placed on agar in multiwell plates (24-well format) and sprayed with the formulated test compound diluted in water. The leaf disks are inoculated with a spore suspension of the fungus 1 day after application. The inoculated leaf segments are incubated at 19° C. and 75% rh under a light regime of 12 h light/12 h darkness in a climate cabinet and the activity of a compound is assessed as percent disease control compared to untreated when an appropriate level of disease damage appears in untreated check leaf segments (7-9 days after application).
Structure (SMILES),inhibition of growth at 20 ppm [1] [%],pest or weed control at 200 ppm [2] [%],pest or weed control at 200 ppm [3] [%],inhibition of growth at 20 ppm [4] [%],inhibition of growth at 20 ppm [5] [%],inhibition of growth at 20 ppm [6] [%],inhibition of growth at 20 ppm [7] [%],inhibition of growth at 20 ppm [8] [%],control of Puccinia recondita f. sp. tritici [9]
"Cn1cc(C(C)(CNC(=O)c2nnc(-c3ncc(F)cc3F)s2)c2cccc(C#N)n2)cn1 (centres unmarked) [X.14, N-[2-(6-cyano-2-pyridyl)-2-(1-methylpyrazol-4-yl)propyl]-5-(3,5-difluoro-2-pyridyl)-1,3,4-thiadiazole-2-carboxamide]",≥ 80,≥ 80,≥ 80,≥ 80,≥ 80,,,,
"Cn1cc(C(C)(CNC(=O)c2nnc(-c3ncc(F)cc3F)s2)c2cccc(Cl)n2)cn1 (centres unmarked) [X.15, N-[2-(6-chloro-2-pyridyl)-2-(1-methylpyrazol-4-yl)propyl]-5-(3,5-difluoro-2-pyridyl)-1,3,4-thiadiazole-2-carboxamide]",≥ 80,≥ 80,≥ 80,≥ 80,≥ 80,≥ 80,≥ 80,≥ 80,
"Cn1cc(C(C)(CNC(=O)c2cc(-c3ncc(F)cc3F)on2)c2cccc(Cl)n2)cn1 (centres unmarked) [X.11, N-[2-(6-chloro-2-pyridyl)-2-(1-methylpyrazol-4-yl)propyl]-5-(3,5-difluoro-2-pyridyl)isoxazole-3-carboxamide]",≥ 80,,≥ 80,≥ 80,≥ 80,≥ 80,≥ 80,≥ 80,
"Cn1cc(C(C)(CNC(=O)c2nnc(-c3ccc(F)nc3F)s2)c2cccc(Cl)n2)cn1 (centres unmarked) [X.16, N-[2-(6-chloro-2-pyridyl)-2-(1-methylpyrazol-4-yl)propyl]-5-(2,6-difluoro-3-pyridyl)-1,3,4-thiadiazole-2-carboxamide]",≥ 80,,,≥ 80,≥ 80,≥ 80,≥ 80,,
"Cn1cc(C(C)(CNC(=O)c2cc(-c3ccc(F)cc3F)on2)c2cccc(Cl)n2)cn1 (centres unmarked) [X.01, N-[2-(6-chloro-2-pyridyl)-2-(1-methylpyrazol-4-yl)propyl]-5-(2,4-difluorophenyl)isoxazole-3-carboxamide]",,,,,,,,,at least 80%
